Data: patent US20090012152A1, “Use of Tetramic Acid Derivatives for Controlling Insects from the Genus of the Plane Lice (Sternorrhyncha)” (Bayer CropScience Aktiengesellschaft, priority 2005, published 2009)

Tests used:
Type in all cases: in vivo
Psylla piri [1] = test: Example 6: pear trees treated against Psylla piri; conditions: larvae on shoots, % a.i.: amitraz 0.05, I-9, I-2, I-1 0.096; for Kill (%) 3 d: 3 d after last of two treatments; for Kill (%) 10 d: 10 d after last of two treatments; for Kill (%) 20 d: 20 d after last of two treatments
Experimental: In three replications, in each case 4 about 4-year-old pear trees of the cultivar “Williams Christ” are treated against Psylla piri. Two applications are carried out at an interval of 11 days using a motor-operated barrow-mounted sprayer. Here, the active compounds Example (I-9) (240 SC), Example (I-2) (240 SC) and Example (I-1) (240 SC) are tested against the commercial standard Amitraz (200 EC) at the stated amounts. The application rate is 2000 l of water/ha.
Evaluation is carried out 3, 10 and 20 days after the last treatment by rating the kill of the larvae in percent on the shoots.

Bemisia argentifolii [2] = test: Example 36: aubergine plants (Ryoma) treated against Bemisia argentifolii; conditions: nymphs on leaves, % a.i.: pymetrozine 0.0125, I-4 0.072, I-8 0.06; for Kill (%) 13 d: 13 d after treatment; for Kill (%) 20 d: 20 d after treatment; for Kill (%) 27 d: 27 d after treatment
Experimental: In three replications, in each case four aubergine plants of the cultivar “Ryoma” are treated against Bemisia argentifolii. The application is carried out using a motor-operated knapsack sprayer. Here, the active compounds Example (I-4) and Example (I-8), in a tank mix with 0.2% a.i. of rapeseed oil methyl ester (500 EW), and the commercial standard pymetrozine (25 WP) are tested at the stated application rates. The application rate is 3200 l of water/ha.
Evaluation is carried out 13, 20 and 27 days after the treatment by rating the kill of the nymphs on the leaves.

Myzus persicae [3] = test: Example 48: aubergine plants treated against Myzus persicae; conditions: on leaves, rate (g of a.i./ha): pymethrozine 0.0125, I-4 0.024
Experimental: In three replications, four aubergine plants (age about 7 months) of the cultivar “Hayabusa” are treated against Myzus persicae. The application is carried out using a motor-operated knapsack sprayer. Here, the active compound Example (I-4) (240 SC), in a tank mix with 0.1% a.i. of rapeseed oil methyl ester (500 EW), and the commercial standard pymethrozine (25 WP) are tested at the stated application rates. The application rate is 3000 l of water/ha.
Evaluation is carried out 7, 14, 21 and 29 days after the treatment by rating the kill of the animals on the leaves.

Myzus persicae [4] = test: Example 46: head lettuce treated against Myzus persicae; conditions: nymphs on plants, g a.i./ha: endosulfan 1120, I-4 48
Experimental: (§1) In four replications, plots of a size of about 33 m^2 with head lettuce of the cultivar “PIC 714” are treated against Aulacorthum solani, Macrosiphum euphorbiae and Myzus persicae. The application is carried out using a tractor sprayer. Here, the active compound Example (I-4) (240 SC), in a tank mix with 0.2% a.i. of rapeseed oil methyl ester (500 EW), is tested against the commercial standard endosulfan (360 EC), at the stated application rates. The application rate is 187 l of water/ha. Two treatments are carried out, at an interval of 22 days.
(§2) Evaluation is carried out 8, 22, 30 and 40 days after the first treatment by rating the kill of the nymphs on the plants.

Macrosiphum euphorbiae = test: Example 46: head lettuce treated against Macrosiphum euphorbiae; conditions: nymphs on plants, g a.i./ha: endosulfan 1120, I-4 48
Experimental: as §1, §2

Bemisia argentifolii [5] = test: Example 37: cantaloupe melons treated against Bemisia argentifolii; conditions: nymphs on leaves, g a.i./ha: endosulfan 1120, I-4 48
Experimental: In four replications, plots of a size of about 39 m^2 with cantaloupe melons of the cultivar “Western Shipper” are treated against Bemisia argentifolii. The application is carried out using a knapsack sprayer operated with pressurized air. Here, the active compound Example (I-4) (240 SC), in a tank mix with 0.2 a.i. of rapeseed oil methyl ester (500 EW), and the commercial standard endosulfan (360 EC) are tested at the stated application rates. Two applications are carried out at an interval of 16 days. The application rate is 187 l of water/ha.
Evaluation is carried out 5, 13, 21 and 29 days after the first treatment by rating the kill of the animals (nymphs) on the leaves.

Aulacorthum solani = test: Example 46: head lettuce treated against Aulacorthum solani; conditions: nymphs on plants, g a.i./ha: endosulfan 1120, I-4 48
Experimental: as §1, §2

Pemphigus bursarius = test: Example 3: chrysanthemums, lettuce root aphid; conditions: on roots, drip irrigation 0.1%
Experimental: In three replications, in each case 10 about 5-month-old chrysanthemums (Camilla) in 2 l-vessels are treated against the lettuce root aphid Pemphigus bursarius. Here, the active compound Example (I-4) (240 SC) is applied with a knapsack sprayer operated by pressurized air at the beginning of the infestation at the stated application rates to the above-ground parts of the plants. The soil is covered with a film. The application rate is 600 l of water/ha. 0.1% a.i. of rapeseed oil methyl ester (500 EW) is added to the spray liquor. Omethoate as drip irrigation in a concentration of 0.1% is used for comparison. The application is carried out two days later.
The kill in percent is determined on the roots. […]

Psylla piri [6] = test: Example 5: pear trees treated against Psylla piri; conditions: nymphs on shoots, g a.i./ha/m crown height: amitraz 266, I-4 72
Experimental: In three replications, pear trees of the cultivar “Williams Christ” are treated against Psylla piri. Application is shortly before the eggs hatch. The application is carried out using a barrow-mounted sprayer operated with pressurized air. Here, the active compound Example (I-4) (240 SC) is tested in a tank mix with 0.1% a.i. rapeseed oil methyl ester (500 EW) at the stated amount against the standard amitraz (200 EC) at the stated amount. The application rate is 1000 l of water/ha.
Evaluation is carried out 7, 14 and 21 days after the treatment by rating the kill of the nymphs on the shoots.

Myzus persicae [7] = test: Example 50: tomatoes treated against Myzus persicae; conditions: nymphs on leaves, g a.i./ha: acetamiprid 50, I-9 36, I-4 48
Experimental: In two replications, plots of a size of about 43 m^2 with tomatoes of the cultivar “Yaqui” are treated against Myzus persicae. The application is carried out using a motor-operated knapsack sprayer. Here, the active compounds Example (I-9) (240 SC) and Example (I-4) (240 SC), in a tank mix with 0.1% a.i. of rapeseed oil methyl ester (500 EW), and the standard acetamiprid (20 WP) are applied at the stated application rates. The application rate is 208 l of water/ha.
Evaluation is carried out 3 and 10 days after the treatment by rating the kill of the nymphs on the leaves.

Saissetia oleae = test: Example 13: orange trees treated against Saissetia oleae; conditions: nymphs on leaves, g a.i./ha/m crown height: buprofezin 500, I-4 72, I-8 30
Experimental: In three replications, in each case two about 8-year-old orange trees are treated against Saissetia oleae. Here, the active compounds Example (I-4) (240 SC) and Example (I-8) (250 SC) in a tank mix with 0.2% a.i. of rapeseed oil methyl ester (500 EW) at the stated application rate are tested against the commercial standard buprofezin in a tank mix with 0.4% a.i. of Oliocin (800 EW) at the stated application rate. The application is carried out using a motor-operated knapsack sprayer. The application rate is 3000 l of water/ha. Two treatments are carried out, at an interval of 29 days.
Evaluation is carried out 24 and 44 days after the last treatment by rating the kill of the nymphs on the leaves.

Nasonovia ribisnigri = test: Example 42: head lettuce treated against Nasonovia ribisnigri; conditions: on plants, g a.i./ha: Pirimor 150, I-4 48, I-8 42
Experimental: In four replications, plots of a size of 5 m^2 with head lettuce are, two weeks after transplantation, treated against Nasonovia ribisnigri. The application is carried out using a knapsack sprayer operated with pressurized air. Here, the active compounds Example (I-4) (240 SC) and Example (I-8) (240 SC) are, in a tank mix with 0.2% a.i. of rapeseed oil methyl ester (500 EW), tested against the commercial standard Pirimor, at the stated application rates. The application rate is 500 l of water/ha.
Evaluation is carried out 7, 14 and 26 days after the treatment by rating the kill of the animals on the plants.

Paratrioza cockerelli = test: Example 7: bell peppers treated against Paratrioza cockerelli; conditions: nymphs on leaves, g a.i./ha: imidacloprid 52.6, I-4 72, dimethoate 561
Experimental: In four replications, plots of a size of about 7 m^2 with bell peppers of the cultivar “Jupiter” are treated against Paratrioza cockerelli. The application is carried out with a knapsack sprayer operated with pressurized air. Here, the active compound Example (I-4) (240 SC) is applied in a tank mix with 0.2% a.i. of rapeseed oil methyl ester (500 EW) and the commercial standards imidacloprid 192 SC and dimethoate (480 EC) are applied in a tank mix with 0.125% Induce at the stated application rates. The application is carried out with an application rate of 467 l of water/ha.
Evaluation is carried out 7 and 15 days after the treatment by rating the kill of the animals (nymphs) on the leaves.

[8] = 8 d after first of two treatments
[9] = 22 d after first of two treatments
[10] = 30 d after first of two treatments
[11] = 40 d after first of two treatments

COC1CCC2(CC1)NC(=O)C(c1cc(C)ccc1Br)=C2OC(=O)C(C)C (stereo not drawn) [Example (I-1)]
Kill (%) 3 d (Psylla piri [1]): 90.0% | Kill (%) 10 d (Psylla piri [1]): 96.6% | Kill (%) 20 d (Psylla piri [1]): 95.0%

CC1=NNC(=O)N(/N=C/c2cccnc2)C1 [pymetrozine, reference compound]
Kill (%) 13 d (Bemisia argentifolii [2]): 79% | Kill (%) 20 d (Bemisia argentifolii [2]): 74% | Kill (%) 27 d (Bemisia argentifolii [2]): 75% | Kill (%) 7 d (Myzus persicae [3]; 7 d after treatment): 99.9% | Kill (%) 14 d (Myzus persicae [3]; 14 d after treatment): 99% | Kill (%) 21 d (Myzus persicae [3]; 21 d after treatment): 95% | Kill (%) 29 d (Myzus persicae [3]; 29 d after treatment): 73%

O=S1OCC2C(CO1)C1(Cl)C(Cl)=C(Cl)C2(Cl)C1(Cl)Cl (stereo not drawn) [endosulfan, reference compound]
Kill (%) 8 d (Myzus persicae [4]; [8]): 95% | Kill (%) 22 d (Myzus persicae [4]; [9]): 61% | Kill (%) 30 d (Myzus persicae [4]; [10]): 100% | Kill (%) 8 d (Macrosiphum euphorbiae; [8]): 100% | Kill (%) 22 d (Macrosiphum euphorbiae; [9]): 100% | Kill (%) 30 d (Macrosiphum euphorbiae; [10]): 99% | Kill (%) 40 d (Macrosiphum euphorbiae; [11]): 96% | Kill (%) 5 d (Bemisia argentifolii [5]; 5 d after first of two treatments): 0% | Kill (%) 13 d (Bemisia argentifolii [5]; 13 d after first of two treatments): 100% | Kill (%) 21 d (Bemisia argentifolii [5]; 21 d after first of two treatments): 80.8% | Kill (%) 29 d (Bemisia argentifolii [5]; 29 d after first of two treatments): 66.7% | Kill (%) 8 d (Aulacorthum solani; [8]): 96% | Kill (%) 22 d (Aulacorthum solani; [9]): 88% | Kill (%) 30 d (Aulacorthum solani; [10]): 98% | Kill (%) 40 d (Aulacorthum solani; [11]): 53%

CNC(=O)CSP(=O)(OC)OC [omethoate, reference compound]
Kill (%) 7 d (Pemphigus bursarius; 7 d): 20 (7 d) % | Kill (%) 15 d (Pemphigus bursarius; 15 d): 70.6 (15 d) %

Cc1ccc(/N=C/N(C)/C=N/c2ccc(C)cc2C)c(C)c1 [amitraz, reference compound]
Kill (%) 7 d (Psylla piri [6]; 7 d after treatment): 100% | Kill (%) 14 d (Psylla piri [6]; 14 d after treatment): 95.2% | Kill (%) 21 d (Psylla piri [6]; 21 d after treatment): 75% | Kill (%) 3 d (Psylla piri [1]): 54.3% | Kill (%) 10 d (Psylla piri [1]): 56.7% | Kill (%) 20 d (Psylla piri [1]): 21.4%

C/C(=N\C#N)N(C)Cc1ccc(Cl)nc1 [acetamiprid, reference compound]
Kill (%) 3 d (Myzus persicae [7]; 3 d after treatment): 78.7% | Kill (%) 10 d (Myzus persicae [7]; 10 d after treatment): 73.5%

CCOC(=O)OC1=C(c2cc(C)c(Cl)cc2C)C(=O)NC12CCC(OC)CC2 (stereo not drawn) [Example (I-8)]
Kill (%) 24 d (Saissetia oleae; 24 d after last of two treatments): 66.5% | Kill (%) 44 d (Saissetia oleae; 44 d after last of two treatments): 56.1% | Kill (%) 13 d (Bemisia argentifolii [2]): 99.5% | Kill (%) 20 d (Bemisia argentifolii [2]): 99.9% | Kill (%) 27 d (Bemisia argentifolii [2]): 97% | Kill (%) 7 d (Nasonovia ribisnigri; 7 d after treatment): 80.8% | Kill (%) 14 d (Nasonovia ribisnigri; 14 d after treatment): 93.6% | Kill (%) 26 d (Nasonovia ribisnigri; 26 d after treatment): 92.7%

CNC(=O)CSP(=S)(OC)OC [dimethoate]
Kill (%) 7 d (Paratrioza cockerelli; 7 d after treatment): 63% | Kill (%) 15 d (Paratrioza cockerelli; 15 d after treatment): 0%
